Experimental data: patent publication US20220041667A1, “TARGETING OF MAKAP-PDE4D3 COMPLEXES IN NEURODEGENERATIVE DISEASE” (The Board of Trustees of the Leland Stanford Junior …, priority 2018, published 2022)

B1: mAKAP-SR-GFP: GFP-tagged fragment encoding the mAKAP spectrin-repeat domains (amino acid residues 586-1286) (protein)
chain: GSDSIKSPVPLLSKNKSQKSSPPAPCHATQNGQVVEAWYGSDEYLALPSHLKQTEVLALKLESLTKLLPQKPRGETIQDIDDWELSEMNSDSEIYPTYHIKKKHTRLGTVSPSSSSDIASSLGESIESGPLSDILSDEDLCLPLSSVKKFTDEKSERPSSSEKNESHSATRSALIQKLMHDIQHQENYEAIWERIEGFVNKLDEFIQWLNEAMETTENWTPPKAETDSLRLYLETHLSFKLNVDSHCALKEAVEEEGHQLLELVVSHKAGLKDTLRMIASQWKELQRQIKRQHSWILRALDTIKAEILATDVSVEDEEGTGSPKAEVQLCHLETQRDAVEQMSLKLYSEQYTSGSKRKEEFANMSKAHAEGSNGLLDFDSEYQELWDWLIDMESLVMDSHDLMMSEEQQQHLYKRYSVEMSIRHLKKSELLSKVEALKKGGLSLPDDILEKVDSINEKWELLGKTLREKIQDTIAGHSGSGPRDLLSPESGSLVRQLEVRIKELKRWLRDTELFIFNSCLRQEKEGTSAEKQLQYFKSLCREIKQRRRGVASILRLCQHLLDDRDTCNLNADHQPMQLIIVNLERRWEAIVMQAVQWQTRLQKKMGKESETLNVIDPGLMDLNGMSEDALEWDETDISNKLISVHEESNDLDQDPEPMLPAVKLEETHHKDSGYEEEAGDCGGSPYTSNITAPSSPHIYQV
modifications: left off: large carriers

Tests used:
hippocampal neurons = assay: Neurite extension assay (length of longest neurite) in primary hippocampal neurons; type: cell-based, rat; conditions: for effect on neurite extension (pharmacological induction): hippocampal neurons, 40 mM KCl, 10 μM FSK, 100 μM IBMX, 20 μM milrinone or 10 μM rolipram for 2 days
Description: Primary rat hippocampal neurons: Hippocampal cultures were prepared from Sprague Dawley rat embryonic day 18 embryos. Briefly, the rat hippocampal CA1-CA3 region was dissected in PBS medium with 10 mM D-glucose and digested with 0.05% trypsin-EDTA in PBS with 11 mM D-glucose for 30 min at 37° C. The dissociated tissues were centrifuged at 250 g for 2 min and then triturated with fire polished glass pipet in Hank's balanced salt solution (HBSS) with calcium and magnesium in plating medium (10% v/v horse serum in DMEM). Dissociated neurons were plated on nitric acid-treated 25-mm cover glass coated with poly-L-lysine in plating medium. Four hours after plating, the medium was replaced with maintenance medium supplemented with 1% N2, 2% B27 (Invitrogen, Carlsbad, Calif., USA), 5 mM D-glucose, 1 mM sodium pyruvate. Four days later, 4 μM arabinosyl cytosine was added to inhibit glial proliferation and the neurons were either transfected with JPEI or infected with adenovirus.
Live cell imaging was performed 36-72 h after transfection/infection as described below. For neurite extension assays, the cells were cultured for two days in DMEM with 1 μg/ml chicken egg albumin and 1 mM sodium pyruvate. 40 mM KCl, 10 μM FSK, 100 μM IBMX, 20 μM Milrinone, 10 μM Rolipram were included as indicated. Two days later, the neurons were fixed and stained with antibodies. Nuclei were counter stained with DAPI and SlowFade Gold antifade solution (Molecular Probes) was added before coverslip mounting. Images were acquired with IPLab or Slidebook 6 by wide-field microscopy (Leica DMI 6000B or Zeiss Axio Observer 7) and processed with Adobe PhotoShop CSS 12.1. The length of the longest neurite for ˜15 neurons average per condition was measured for each experiment with ImageJ with Simple Neurite Tracer plugin. Other neuronal images were acquired using a Zeiss 880 confocal microscope.

[1] = target: PKA (protein kinase A, in Cos-7 cells); assay: cell-based or functional assay

Row | Molecule | effect on neurite extension (pharmacological induction) (hippocampal neurons) | also measured
1 | [Cl-].[K+] [KCl] | induced neurite extension | increase in axon extension due to KCl depolarization alone (hippocampal neurons; GFP-expressing hippocampal neurons): 29%; increase in axon extension due to KCl depolarization alone (hippocampal neurons; mCherry-nesprin-expressing hippocampal neurons): 37%
2 | COc1ccc(C2CNC(=O)C2)cc1OC1CCCC1 (centres unmarked) [rolipram] | induced neurite extension | –
3 | mAKAPα WT (N-terminally myc-tagged rat mAKAPα) (from UniProt Q9WVC7 1-2314) | – | amplitude of PN-AKAR4 FRET transient after FSK pulse in Cos-7 cells [1]: 50%
4 | Cc1[nH]c(=O)c(C#N)cc1-c1ccncc1 [milrinone] | no effect on neurite growth | –
5 | CC(C)Cn1c(=O)n(C)c(=O)c2[nH]cnc21 [IBMX, 3-isobutyl-1-methylxanthine] | induced neurite extension | –
6 | B1 | – | effect on axon outgrowth (longest neurite length) (hippocampal neurons; hippocampal neurons in defined media and with chronic KCl depolarization, vs GFP control): inhibited axon outgrowth
